Laboratory results as given in patent US10221129B2, “Inhibitors of human immunodeficiency virus replication” (ViiV HEALTHCARE UK (NO.5) LIMITED, priority 2015, dated 2019).

Key:
[1] = tested on: recombinant NL4-3 virus (nef section replaced with Renilla luciferase gene) in MT-2 cells; test: HIV cell culture assay (antiviral activity, luciferase readout); assay type: cell-based; settings: Renilla, NL43, MT-2 cells infected for 4-5 days with recombinant NL4-3 Renilla luciferase virus
Procedure, shortened: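 Serial compound dilutions tested in MT-2 cells infected for 4-5 days with 293T-derived NL4-3 virus carrying Renilla luciferase in place of part of nef. Antiviral activity quantified as luciferase activity, read with a live-cell substrate.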

[2] = Compound cytotoxicity, XTT-based colorimetric assay; assay type: cell-based; settings: human, uninfected MT2 cells, day 4, XTT
Procedure, shortened: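 Run under the antiviral-assay protocol but without virus. Viability was read on day 4 and CC50 values were derived from the readout.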

Row | SMILES | EC50 [1] [nM] | CC50 at 4 days [2] [nM] | CC50 at 4 day [2] [nM]
1 | COc1ccc(N(C)C(=O)[C@H](Cc2ccccc2)NC(=O)NS(=O)(=O)n2nc(-c3ccccc3)c3ccccc32)cc1 [CA-63] | 30200 | 73700 | –
2 | COc1ccc(N(C)C(=O)[C@H](Cc2cc(F)cc(F)c2)NC(=O)NS(=O)(=O)N2CCC[C@H]2C(=O)N(C)C)cc1 [BB-21] | 750 | > 100000 | –
3 | CN(C(=O)[C@H](Cc1cc(F)cc(F)c1)NC(=O)NS(=O)(=O)N1CCc2cccnc21)c1cccnc1 [GW-18] | 180 | > 100000 | –
4 | COc1ccc(N(C)C(=O)[C@H](Cc2ccccc2)NC(=O)NS(=O)(=O)N2CCc3cc(Cl)cc(Cl)c32)cc1 [CA-3] | 5720 | > 100000 | –
5 | COc1ccc(N(C)C(=O)[C@H](Cc2ccccc2)NC(=O)NS(=O)(=O)Nc2cccc(-c3cnco3)c2)cc1 [CA-27] | 310 | > 100000 | –
6 | COc1ccc(N(C)C(=O)[C@H](Cc2ccccc2)NC(=O)NS(=O)(=O)NCc2cc(C)on2)cc1 [JB-59] | 1860 | > 100000 | –
7 | CN(C(=O)[C@H](Cc1cc(F)cc(F)c1)NC(=O)NS(=O)(=O)NCc1ccccn1)c1ccc2scnc2c1 [CA-134] | 430 | > 100000 | –
8 | COc1ccc(N(C)C(=O)[C@H](Cc2ccccc2)NC(=O)NS(=O)(=O)N(C)c2ccc(Cl)cc2)cc1 [JB-35] | 80 | > 100000 | –
9 | Cc1ccc(N(C)C(=O)[C@H](Cc2cc(F)cc(F)c2)NC(=O)NS(=O)(=O)N2CCc3cccnc32)cn1 [GW-2] | 70 | > 100000 | –
10 | CN(C(=O)[C@H](Cc1cc(F)cc(F)c1)NC(=O)NS(=O)(=O)N1CC[C@@H](O)C1)c1ccc2scnc2c1 [VN-27] | 90 | > 100000 | –
11 | COc1ccc(N(C)C(=O)[C@H](Cc2ccccc2)NC(=O)NS(=O)(=O)Nc2cccc(Cl)c2Cl)cc1 [CA-30] | 80 | > 100000 | –
12 | COc1ccc(N(C)C(=O)[C@H](Cc2ccccc2)NC(=O)NS(=O)(=O)N2CCc3ccccc32)cc1 [JB-1] | 110 | > 100000 | –
13 | COc1ccc(N(C)C(=O)[C@H](Cc2cc(F)cc(F)c2)NC(=O)NS(=O)(=O)N2CCC(F)(F)CC2)cc1F [AW-3] | 980 | > 100000 | –
14 | COc1ccc(N(C)C(=O)[C@H](Cc2ccccc2)NC(=O)NS(=O)(=O)Nc2ccccc2OC(F)(F)F)cc1 [CA-26] | 270 | > 100000 | –
15 | COc1ccc(N(C)C(=O)[C@H](Cc2ccccc2)NC(=O)NS(=O)(=O)Nc2ccc(C)c(C)c2)cc1 [CA-13] | 60 | > 100000 | –
16 | CN(C(=O)[C@H](Cc1cc(F)cc(F)c1)NC(=O)NS(=O)(=O)NC1CC1)c1ccc2scnc2c1 [CA-142] | 40 | > 100000 | –
17 | CCN(c1cccnc1)S(=O)(=O)NC(=O)N[C@@H](Cc1cc(F)cc(F)c1)C(=O)N(C)c1ccc2scnc2c1 [CA-121] | 990 | 7300 | –
18 | CN(C(=O)[C@H](Cc1cc(F)cc(F)c1)NC(=O)N1CCN(C)S1(=O)=O)c1ccc2scnc2c1 [VN-28] | 250 | > 100000 | –
19 | COc1ccc(N(C)C(=O)[C@H](Cc2ccccc2)NC(=O)NS(=O)(=O)Nc2ccc(OC(C)C)cc2)cc1 [CA-40] | 220 | > 100000 | –
20 | Cc1nc2cc(N(C)C(=O)[C@H](Cc3cc(F)cc(F)c3)NC(=O)NS(=O)(=O)N3CCc4cccnc43)ccc2s1 [ZY-23] | 80 | > 100000 | –
21 | COc1ccc(N(C)C(=O)[C@H](Cc2ccccc2)NC(=O)NS(=O)(=O)Nc2ccc(S(=O)(=O)N3CCCC3)cc2)cc1 [CA-43] | 300 | > 100000 | –
22 | CN(C(=O)[C@H](Cc1cc(F)cc(F)c1)NC(=O)NS(=O)(=O)NCCO)c1ccc2scnc2c1 [CA-138] | 270 | > 100000 | –
23 | COc1ccc(N(C)C(=O)[C@H](Cc2ccccc2)NC(=O)NS(=O)(=O)N(C)c2ccccc2OC)cc1 [JB-23] | 870 | > 100000 | –
24 | COc1ccc(N(C)C(=O)[C@H](Cc2ccccc2)NC(=O)NS(=O)(=O)n2ccc3cnccc32)cc1 [JB-80] | 360 | – | > 100000
25 | CN(C(=O)[C@H](Cc1cc(F)cc(F)c1)NC(=O)NS(=O)(=O)N(C)c1ccccc1F)c1ccc2scnc2c1 [CA-117] | 120 | > 100000 | –
26 | COc1ccc(N(C)C(=O)[C@H](Cc2ccccc2)NC(=O)NS(=O)(=O)N(C)c2ccccc2Cl)cc1 [JB-6] | 660 | > 100000 | –
27 | CN(C(=O)[C@H](Cc1cc(F)cc(F)c1)NC(=O)NS(=O)(=O)N1CCc2ccnnc21)c1ccc2scnc2c1 [VN-17] | 70 | > 100000 | –
28 | COC1CN(S(=O)(=O)NC(=O)N[C@@H](Cc2cc(F)cc(F)c2)C(=O)N(C)c2ccc3scnc3c2)C1 [CA-128] | 100 | > 100000 | –
29 | CCN(c1ccccc1)S(=O)(=O)NC(=O)N[C@@H](Cc1ccccc1)C(=O)N(C)c1ccc(OC)cc1 [CA-23] | 60 | > 100000 | –
